Test results taken from PubChem BioAssay (NCI).
Several values for one entry are separate records, joined by “and”; a condition that tells them apart may be missing. Equal entries are not always repeated.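 Dose response: 5 concentrations. Exposure: 48 h. Format: 96-well plates. Endpoint: linear interpolation; highest concentration if not reached. GI50 = concentration required for 50% inhibition of growth. TGI denotes the concentration required for complete inhibition of growth.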

Experiments:
Assay in all cases: growth of human tumour cells (NCI), 48 h
A549 NSCLC = tested on: A549 NSCLC
M14 melanoma = tested on: M14 melanoma
HCT-116 colon = tested on: HCT-116 colon
HOP-62 NSCLC = tested on: HOP-62 NSCLC
SK-OV-3 ovarian = tested on: SK-OV-3 ovarian
LOX IMVI melanoma = tested on: LOX IMVI melanoma
SNB-75 CNS = tested on: SNB-75 CNS
NCI-H460 lung = tested on: NCI-H460 lung
BT-549 breast = tested on: BT-549 breast
NCI-H226 lung = tested on: NCI-H226 lung

SMILES | GI50 (A549 NSCLC) | TGI (A549 NSCLC) | GI50 (M14 melanoma) | TGI (M14 melanoma) | GI50 (HCT-116 colon) | TGI (HCT-116 colon) | GI50 (HOP-62 NSCLC) | TGI (HOP-62 NSCLC) | GI50 (SK-OV-3 ovarian) | TGI (SK-OV-3 ovarian) | GI50 (LOX IMVI melanoma) | TGI (LOX IMVI melanoma) | GI50 (SNB-75 CNS) | TGI (SNB-75 CNS) | GI50 (NCI-H460 lung) | TGI (NCI-H460 lung) | GI50 (BT-549 breast) | TGI (BT-549 breast) | GI50 (NCI-H226 lung) | TGI (NCI-H226 lung)
COc1cc2c(cc1Nc1nc(N3CCc4ccccc43)c3cc[nH]c3n1)N(C(=O)CN(C)C)CC2 | 3.34 µM | 8.88 µM | 0.6 µM | 1.51 µM | 1.33 µM | 2.91 µM | 4.62 µM | 9.46 µM | 20.5 µM | 25 µM | 1.59 µM | 10.2 µM | 4.88 µM | 9.97 µM | 1.29 µM | 2.79 µM | 8.38 µM | 15.7 µM | 11.3 µM | 20.1 µM
O=C1Oc2ccccc2C(=O)/C1=C1/C=C(c2ccccc2)SS1 |  | > 100 µM |  | > 100 µM |  | > 100 µM |  | > 100 µM |  | > 100 µM |  | > 100 µM |  | > 100 µM |  | > 100 µM |  | > 100 µM |  | > 100 µM
COc1cc2c(N3CCN(C(=O)Nc4ccc(OC(C)C)cc4)CC3)ncnc2cc1OCCCN1CCCCC1 | 17.1 µM | > 93.7 µM | 16.2 µM | 32.6 µM | 14 µM | 57.3 µM | 14.4 µM | 34.2 µM | 18.4 µM | 39.9 µM | 8.15 µM | 23.9 µM | 3.29 µM | 26.4 µM | 18.4 µM | > 61.3 µM | 13.4 µM | 29.3 µM | 15.2 µM | 45.3 µM
CNCc1cccc2c1OCCOCCOCCN(C)S(=O)(=O)c1ccc(cc1)-c1cnc(N)c(n1)C(=O)N2 | 1.57 µM | 13.4 µM | 1.11 µM | 3.4 µM | 1.19 µM | 3.12 µM | 1.77 µM | 4.04 µM | 0.389 µM | 12.8 µM | 1.05 µM | 3.23 µM | 0.218 µM | 17.6 µM | 0.868 µM | 2.95 µM | 3.27 µM | 21.6 µM | 2.76 µM | 6.92 µM
COC1N(C2CC(O)C(CO)O2)C(=O)NC(=O)C1(F)Br (stereo not given) | 3.22 µM | 50 µM and > 100 µM | 38.4 µM | 50 µM and > 100 µM | 12.6 µM | 50 µM and > 100 µM | 8.35 µM | 50 µM and > 66.5 µM | 99.4 µM | > 100 µM | 4.47 µM | 50 µM and > 100 µM | 7.44 µM | 50 µM and 81.6 µM | 1.51 µM | 50 µM and > 100 µM |  | > 100 µM | > 88.3 µM | > 100 µM
O=c1c2ccccc2sc2c(CO)ccc(NCCN3CCCCC3)c12 |  | 12.8 µM |  | 3.82 µM |  | 11.8 µM |  | 14.6 µM |  | 16.3 µM |  | 11 µM |  | 19.5 µM |  | 8.37 µM |  | 23 µM |  | 10.6 µM
CC1(C)OC[C@@H]([C@@]2(CO[Si](c3ccccc3)(c3ccccc3)C(C)(C)C)CC=CC(=O)O2)O1 | 5.27 µM | > 100 µM | 8.52 µM | 60.5 µM | 4.86 µM | > 100 µM | 31.5 µM | 60.9 µM | 33 µM | > 100 µM | 3.93 µM | 21 µM |  |  | 5.16 µM | > 100 µM | 4.46 µM | 19 µM | 5.54 µM | 24.1 µM
Cc1nn(-c2ccc(Cl)cc2)c2ncnc(N/N=C/c3ccccc3O)c12 | 1.77 µM and 0.699 µM | 17.2 µM and 16 µM | 0.523 µM and 0.34 µM | 2.43 µM and 2.11 µM | 0.373 µM and 0.701 µM | 20.7 µM and > 43.3 µM | 0.538 µM and 0.322 µM | 17.1 µM and 9.11 µM | 0.615 µM and 0.427 µM | 26.5 µM and 10.8 µM | 0.389 µM and 0.251 µM | 11.9 µM and 10.2 µM | 4.03 µM and 0.501 µM | 37.9 µM and 4.49 µM | 0.375 µM and 0.347 µM | 3.14 µM and 5.67 µM | 1.31 µM and 0.57 µM | 57.9 µM and > 100 µM | 3.86 µM and 2.55 µM | 40.7 µM and > 29.5 µM
O=C1/C(=C/c2ccc(Cl)c(Cl)c2)CN(C(=O)CCN2CCC(=NO)CC2)C/C1=C\c1ccc(Cl)c(Cl)c1 | 2.15 µM | 6.47 µM | 0.782 µM | 2.23 µM | 0.267 µM | 0.778 µM | 1.26 µM | 3.11 µM | 1.85 µM | 3.48 µM | 0.256 µM | 0.612 µM | 1.38 µM | 3.17 µM | 0.933 µM | 2.57 µM | 0.829 µM | 1.84 µM | 1.26 µM | 2.53 µM
CC(Br)C(=O)NC(CO)C(=O)O (stereo not given) |  | > 100 µM |  | > 100 µM |  | > 100 µM |  | > 100 µM |  | > 100 µM |  | > 100 µM |  | > 100 µM |  | > 100 µM |  | > 100 µM |  | > 100 µM
Cn1nccc1Nc1nccc(-c2ccn([C@H](CO)c3ccc(Cl)c(F)c3)c(=O)c2)n1 | 36 µM | > 100 µM | 0.0871 µM | > 72.2 µM | 2.79 µM | 21.1 µM | 37.8 µM | > 100 µM | 47.6 µM | > 100 µM | 3.72 µM | 28.1 µM | 24.9 µM | > 100 µM | 38.4 µM | > 100 µM | 19.7 µM | 61 µM | 34.8 µM | > 100 µM
CC(C)(CO)CNC(=O)c1ccc2[nH]c(O)c(N=Nc3ccc(S(N)(=O)=O)cc3)c2c1 | > 25 µM | > 25 µM | > 25 µM | > 25 µM | > 25 µM | > 25 µM | > 25 µM | > 25 µM | > 25 µM | > 25 µM | > 25 µM | > 25 µM | > 25 µM | > 25 µM | > 25 µM | > 25 µM | > 25 µM | > 25 µM | > 25 µM | > 25 µM
CSC1=Nc2c(c(C)c(C)n2COC(CO)CO)C2=NC(=O)CN12 | > 100 µM | > 100 µM |  |  | > 100 µM | > 100 µM | > 100 µM | > 100 µM | > 100 µM | > 100 µM | > 100 µM | > 100 µM | 63 µM | > 100 µM | > 100 µM | > 100 µM | > 100 µM | > 100 µM | > 100 µM | > 100 µM
